Data: article PMC11238919 (Virulence, 2024)
Several values for one entry are separate records, joined by “and”; a condition that tells them apart may be missing. Identical values can stand only once. Where no end group is shown, it is not given here. [ ]: non-standard residue; d: D form. pY = N[C@@H](Cc1ccc(OP(=O)(O)O)cc1)C(=O)O

Experiments:
SHIP2-SH2 domain = biological target: T1, SHIP2-SH2 domain (Homo sapiens, UniProt O15357); assay: SPR affinity of EPIpYA peptides to immobilized SHIP2-SH2 domain; format: binding; settings: EPIpYA-D versus EPIpYA-C
T1 sequence (O15357 21-117 limits assumed): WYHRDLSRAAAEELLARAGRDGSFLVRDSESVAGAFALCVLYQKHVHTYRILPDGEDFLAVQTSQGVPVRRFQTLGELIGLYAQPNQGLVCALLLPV

[1] = test system: hummingbird phenotype of infected cells; assay: Hummingbird phenotype of infected cells; format: cell-based; settings: SHP099 10 µM added 48 h before infection
SHIP2 = settings: ref [15]; cited from earlier work
SHP2 = settings: ref [10]; cited from earlier work
[2] = biological target: T2, His-tagged SHIP2-SH2 domain (UniProt O15357 21-117); assay: SPR
T2 sequence (looked up): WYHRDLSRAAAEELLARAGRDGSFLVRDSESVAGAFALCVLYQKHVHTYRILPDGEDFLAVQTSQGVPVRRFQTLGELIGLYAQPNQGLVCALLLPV

CC[C@H](C)[C@H](NC(=O)[C@@H](NC(=O)[C@H](C)NC(=O)[C@H](Cc1ccc(OP(=O)(O)O)cc1)NC(=O)[C@@H](NC(=O)[C@@H]1CCCN1C(=O)[C@H](CCC(=O)O)NC(=O)[C@@H]1CCCN1C(=O)[C@H](CO)NC(=O)[C@H](C)N)[C@@H](C)CC)[C@@H](C)O)C(=O)N[C@@H](CC(=O)O)C(=O)N[C@@H](Cc1ccccc1)C(=O)N[C@@H](CC(=O)O)C(=O)O [EPIpYA-D]
KD approximately 10 times lower than that of EPIpYA-C (SHIP2-SH2 domain): approximately 10 times

CC1(N)CCN(c2cnc(-c3cccc(Cl)c3Cl)c(N)n2)CC1 [SHP099]
differences in morphological changes between strain groups [1]: the differences in the morphological changes between the groups were not obvious

EPIYA-C: EPIYA-C motif of CagA^W (literature)
binding to SHIP2, EPIYA-C versus EPIYA-D (SHIP2): binds slightly strongly to EPIYA-C than EPIYA-D

EPIYA-D: CagA^E-specific EPIYA-D segment (literature)
binding to SHP2, EPIYA-D versus EPIYA-C (SHP2): binds to SHP2 more strongly than the EPIYA-C segment

B1: tyrosine-phosphorylated EPIYA-C peptide (VSPEPIpYATIDDL) (peptide)
peptide: VSPEPI[pY]ATIDDL
Kd [2]: 8350 nM

B2: tyrosine-phosphorylated EPIYA-D peptide (ASPEPIpYATIDFD) (peptide)
peptide: ASPEPI[pY]ATIDFD
Kd [2]: 890 nM and 896 nM
